Assay results reported in PMC9102953, “New Derivatives of 5-Substituted Uracils: Potential Agents with a Wide Spectrum of Biological Activity” (Molecules, 2022).
pEC50: −log10 of the molar value. Where two headings read alike, the source gives them in different places.

Experiments:
[1] = system: HEL cells; assay: Change of cell morphology in HEL cells; format: cell-based, human
[2] = system: human cytomegalovirus (HCMV) strain AD-169; assay: microbe, parasite or virus in culture; format: cell-based; details: Human betaherpesvirus 5, AD169, HEL, read-out: EC50, formation of viral plaques, cytomegalovirus strain AD169
[3] = system: a variety of RNA viruses; format: cell-based
[4] = system: HEL299, Huh 7 and MDCK cells
[5] = system: human cytomegalovirus (HCMV) strain Davis; assay: microbe, parasite or virus in culture; format: cell-based; details: Human betaherpesvirus 5, HEL, read-out: EC50, formation of viral plaques, cytomegalovirus strain Davis
[6] = system: respiratory syncytial virus (RSV) strain A Long; assay: microbe, parasite or virus in culture; format: cell-based; details: human respiratory syncytial virus, HEL 299, read-out: EC50 (μM) RSV A Long, HEL 299
[7] = in vitro; details: dog
[8] = system: yellow fever virus (YFV) strain 17 D; assay: microbe, parasite or virus in culture; format: cell-based; details: Yellow fever virus, Huh-7, read-out: EC50 (μM) YFV 17D, Huh7
[9] = system: HCoV-OC43; assay: Antiviral cytopathicity assay, HCoV-OC43 in HEL 299 cells; format: cell-based
[10] = system: varicella-zoster virus (VZV) strain TK−; assay: microbe, parasite or virus in culture; format: cell-based; details: Human alphaherpesvirus 3, HEL, read-out: EC50, formation of viral plaques, TK-varicella-zoster virus strain
[11] = in vitro; details: human
[12] = in vitro; details: human; remark: listed apart in the source
[13] = Betacoronavirus 1, OC43, HEL 299, read-out: EC50 (μM) HCoV-OC43, HEL 299

| SMILES | minimum concentration that leads to the detection of changes in cell morphology [1] | pEC50 [2] | antiviral activity in the screening (in words) [3] | cytotoxicity in the tested cell lines (in words) [4] | pEC50 [5] | EC50 [6] [µM] | CC50 [7] [µM] | EC50 [8] [µM] | EC50 ([9]; Betacoronavirus 1, OC43, HEL 299 cells, reduction of virus-induced cytopathicity by 50%, read-out: EC50 (μM) HCoV-OC43, HEL 299) [µM] | pEC50 [10] | CC50 [11] [µM] | CC50 [12] [µM] | EC50 [9, 13] [µM] |
| --- | --- | --- | --- | --- | --- | --- | --- | --- | --- | --- | --- | --- | --- |
| CC(C)(C)c1ccc(Nc2cn(C3C=CC(O)C3)c(=O)n(C3C=CC(O)C3)c2=O)cc1 (racemic) [(±)-4e, (±)-1-(1-(4′-hydroxycyclopent-2′-ene-1′-yl))-3-(4‴-hydroxycyclopent-2‴-en-1‴-yl)-5-((4″-tert-butyl)phenylamino)uracil] | greater than 100 μM | 4.12 | did not show any activity | marked cytotoxicity | 4.39 | > 100 | 19.5 | > 100 | > 100 | 4.31 | – | – | – |
| Cc1cc(C)cc(Oc2cn(C3C=CC(O)C3)c(=O)[nH]c2=O)c1 (racemic) [(±)-10a, (±)-1-(4′-Hydroxycyclopent-2′-en-1′-yl)-5-(3″,5″-dimethylphenoxy)uracil] | – | – | did not show any activity | marked cytotoxicity | – | > 100 | 33.8 | > 100 | – | – | > 100 | > 100 | > 100 |
| O=c1c(Oc2ccc(Cl)cc2)cn(C2C=CC(O)C2)c(=O)n1C1C=CC(O)C1 (racemic) [(±)-11c, (±)-1-(4′-hydroxycyclopent-2′-en-1′-yl)-3-(4‴-hydroxycyclopent-2‴-en-1‴-yl)-5-(4″-chlorophenoxy)uracil] | – | – | did not show any activity | marked cytotoxicity | – | > 100 | 47.4 | > 100 | – | – | > 100 | > 100 | > 100 |
